Where two headings read alike, the source gives them in different places.

From US8563588B2, “Imidazolone derivatives, method for the preparation thereof and biological applications” (Universite de Rennes 1, priority 2007, dated 2013) come the findings set out here.

The assay addresses Rat recombinant DYRK1A (Rattus norvegicus, UniProt Q63470). The assay can be described thus: Assaying of the kinase activity of DYRK1A (33P-ATP, myelin basic protein, P81 filter).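 Note: GST fusion rat DYRK1A made in E. coli, scintillation counting of label bound to substrate, activity as percent of the inhibitor-free maximum after blank subtraction.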 The assay is classed as biochemical.
Where [1] appears, read: 15 μM ATP, 30° C., 30 min, read-out: IC50 DYRK1A.

Experimental: Rat recombinant DYRK1A was expressed in E. coli as a GST fusion protein. It was purified by affinity chromatography on beads of immobilized glutathione (elution with free glutathione). […] After incubation at 30° C. for 30 min, 25-μL aliquots of supernatant were spotted onto Whatman P81 phosphocellulose filters and the filters were washed five times in a solution of phosphoric acid (10 ml/L water). The radioactivity incorporated into the substrate, retained on the moist filters, was then counted in the presence of ACS scintillation fluid (Amersham). The control values were subtracted and the activities were expressed as % of the maximum value, i.e. the value obtained in the absence of inhibitors. The IC50 values were calculated from dose-response curves and are given in μM.

With `COCCSC1=N/C(=C\c2ccc3c(c2)OCO3)C(=O)N1` [ST164], the IC50 – broadly, the concentration that gives 50% inhibition – under setting [1] was 0.65 µM.
Take `O=C1NC(SCC2CC2)=N/C1=C\c1ccc2c(c1)OCO2` [ST130]: the concentration for half-maximal inhibition (IC50) under setting [1] stood at 0.5 µM.
Take `CCSC1=N/C(=C\c2ccc3c(c2)OCO3)C(=O)N1C` [SB26, (5Z)-5-(1,3-benzodioxol-5-ylmethylene)-3-methyl-2-(ethylthio)-3,5-dihydro-4H-imidazol-4-one]: under setting [1], the IC50 was 1.4 µM.
Still for that read-out and setting: under `CN1C(=O)/C(=C/c2ccc3c(c2)OCO3)N=C1Nc1ccc(O)c(C(=O)O)c1` [MADE33] stands 0.94 µM; under `CC(=O)NC1=N/C(=C\c2ccc3c(c2)OCO3)C(=O)N1C` [IA24], above 10 µM; under `CC(C)SC1=N/C(=C\c2ccc3c(c2)OCO3)C(=O)N1C` [ST097], 1.3 µM.
Same read-out and setting: under `O=C1NC(=S)N/C1=C\c1cc(Br)c2c(c1)OCO2` [ST279] stands above 10 µM; under `CN1C(=O)/C(=C/c2ccc3c(c2)OCO3)N=C1NC(=O)Cc1ccccc1` [IA25], above 10 µM; under `CN1C(=O)/C(=C/c2ccc(O)cc2)NC1=S` [ST076], above 10 µM.
Same read-out and setting: as for `CCOC(=O)C(=O)NC1=N/C(=C\c2ccc3c(c2)OCO3)C(=O)N1C` [IA35], the figure is above 10 µM.
In the case of `CCSC1=N/C(=C\c2ccc(OC)c(OC)c2)C(=O)N1C` [SB55], the IC50 under setting [1] was above 10 µM.
Same read-out and setting: as for `CN1C(=O)/C(=C/c2ccc3c(c2)OCO3)N=C1NC(=O)C(C)(C)C` [IA31], the figure is 3.4 µM; as for `CCCCN1C(=O)/C(=C/c2ccc3c(c2)OCO3)N=C1SCc1ccccc1` [SB10], above 10 µM.
Still for that read-out and setting: under `COc1cc(/C=C2\N=C(SC)N(C)C2=O)cc(OC)c1OC` [JR161] stands above 10 µM; under `CCCCN1C(=O)/C(=C/c2ccc3c(c2)OCO3)N=C1SCC` [SB05], above 10 µM.
Same read-out and setting: as for `CSC1=N/C(=C\c2ccccc2O)C(=O)N1C` [JR159], the figure is above 10 µM; as for `O=C1NC(=S)N/C1=C\c1ccc(O)c(O)c1` [ST227], 66 µM.
Regarding `CC(C)CNC1=N/C(=C\c2ccc3c(c2)OCO3)C(=O)N1C` [FCFD24], the IC50 under setting [1] was above 10 µM.
The same measure, in the same setting: as for `CN1C(=O)/C(=C/c2ccc3c(c2)OCO3)N=C1NC(=O)c1ccccc1` [IA33], the figure is above 10 µM; as for `CN1C(=O)/C(=C/c2ccc3c(c2)OCO3)N=C1Nc1ccc2c(c1)OCCO2` [MADE29], 0.19 µM.
Same read-out and setting: as for `NC1=N/C(=C\c2ccc(O)c(O)c2)C(=O)N1` [ST326], the figure is above 10 µM; as for `C#CCSC1=N/C(=C\c2ccc3c(c2)OCO3)C(=O)N1CCCC` [SB22], above 10 µM.
On the same count and under the same terms, as for `CN1C(=O)/C(=C/c2ccc3c(c2)OC(F)(F)O3)NC1=S` [ST089], the figure is above 10 µM; as for `CN1C(=O)/C(=C/c2ccc3c(c2)OCO3)N=C1c1ccccc1` [NL39, (5Z)-5-(1,3-Benzodioxol-5-ylmethylene)-3-methyl-2-phenyl-3,5-dihydro-4H-imidazol-4-one], 3.2 µM; as for `COc1cc(/C=C2\NC(=S)NC2=O)ccc1O` [ST202], above 10 µM.
Regarding `COc1ccc(NC2=N/C(=C\c3ccc4c(c3)OCO4)C(=O)N2C)cc1` [MADE39], the IC50 (IC50 DYRK1A) stood at 0.27 µM.
